Converted amounts (≈) assume the structure as drawn. *1 amine or outer side, *2 acyl side, *3 side chain or, on linkers, in order; H or OH if unused. Where a SMILES comes first, the peptide text is derived from it. Bridges are numbered along the chain shown (N, C = ends). [ ]: non-standard residue; d: D form. The star is where a group is joined. hTyr(3S-OH,4S-OH,3'-OSO3H) = N[C@H](C(=O)O)[C@H](O)[C@@H](O)c1ccc(O)c(OS(=O)(=O)O)c1; Orn(4R-OH,5R-OH) = O=C([C@H](C[C@@H](O)[C@@H](O)N[*:3])N[*:1])[*:2]; Pro(3S-OH,4S-Me) = C[C@H]1CN[C@H](C(=O)O)[C@H]1O; X1 = CCCCCOc1ccc(-c2cc(-c3ccc(C(=O)*)cc3)no2)cc1; Gln(3R-OH) = NC(=O)C[C@@H](O)[C@H](N)C(=O)O; Hyp = O=C(O)[C@@H]1C[C@@H](O)CN1
How the values were obtained:
Aspergillus fumigatus [1] = test: Antifungal activity against Aspergillus fumigatus GIMCC 3.19 assessed as fungal growth inhibition incubated for 24 hrs by two-fold serial dilution method; type: functional
Candida albicans [2] = test: Antifungal activity against Candida albicans ATCC 76615 assessed as fungal growth inhibition incubated for 24 hrs by two-fold serial dilution method; type: functional
Aspergillus flavus [3] = test: Antifungal activity against Aspergillus flavus ATCC 16870 assessed as fungal growth inhibition incubated for 24 hrs by two-fold serial dilution method; type: functional
[4] = Inhibition of Candida tropicalis ATCC 750 chitin synthase using UDP-GlcNAc as substrate incubated for 1 hr by absorbance based assay
Candida tropicalis = test: Inhibition of Candida tropicalis ATCC 750 chitin synthase using […] as substrate at 300 ug/ml incubated for 1 hr by absorbance based assay relative to control; details: dose 300.0 µg/ml
Cryptococcus neoformans [5] = test: Antifungal activity against Cryptococcus neoformans ATCC 32719 assessed as fungal growth inhibition incubated for 24 hrs by two-fold serial dilution method; type: functional
Candida albicans [6] = test: Antifungal activity against Micafungin-resistant Candida albicans ATCC 76615R assessed as fungal growth inhibition; type: functional
Candida albicans [7] = test: Antifungal activity against Candida albicans ATCC 76615 assessed as inhibition of cell wall synthesis incubated for 24 hrs in presence of sorbitol; type: functional
Aspergillus fumigatus [8] = test: Antifungal activity against Aspergillus fumigatus GIMCC 3.19 assessed as inhibition of cell wall synthesis incubated for 24 hrs in presence of sorbitol; type: functional
A549 = test: Cytotoxicity against human A549 cells assessed as cell viability incubated for 24 hrs at 128 ug/ml by CCK-8 assay relative to control; details: dose 128 µg/ml
Aspergillus flavus [9] = test: Antifungal activity against Aspergillus flavus ATCC 16870 assessed as inhibition of cell wall synthesis incubated for 24 hrs in presence of sorbitol; type: functional
Aspergillus fumigatus [10] = test: Antifungal activity against Aspergillus fumigatus GIMCC 3.19 assessed as inhibition of cell wall synthesis incubated for 24 hrs in absence of sorbitol; type: functional
[11] = Cytotoxicity against human A549 cells assessed as cell viability at 64 ug/ml incubated for 24 hrs by CCK-8 assay relative to control; type: toxicity, cell-based; details: at 64 µg/mL, read-out: Activity
[12] = Cytotoxicity against human A549 cells assessed as cell viability at 4 ug/ml incubated for 24 hrs by CCK-8 assay relative to control; type: toxicity, cell-based; details: at 4 µg/mL, read-out: Activity
[13] = Cytotoxicity against human A549 cells assessed as cell viability at 16 ug/ml incubated for 24 hrs by CCK-8 assay relative to control; type: toxicity, cell-based; details: at 16 µg/mL, read-out: Activity
Cryptococcus neoformans [14] = test: Antifungal activity against Cryptococcus neoformans ATCC 32719 assessed as inhibition of cell wall synthesis incubated for 24 hrs in presence of sorbitol; type: functional
Candida albicans [15] = test: Antifungal activity against Candida albicans ATCC 76615 assessed as inhibition of cell wall synthesis incubated for 24 hrs in absence of sorbitol; type: functional
[16] = Cytotoxicity against human A549 cells assessed as cell viability at 32 ug/ml incubated for 24 hrs by CCK-8 assay relative to control; type: toxicity, cell-based; details: at 32 µg/mL, read-out: Activity
Cryptococcus neoformans [17] = test: Antifungal activity against Cryptococcus neoformans ATCC 32719 assessed as inhibition of cell wall synthesis incubated for 24 hrs in absence of sorbitol; type: functional
[18] = Cytotoxicity against human A549 cells assessed as cell viability at 8 ug/ml incubated for 24 hrs by CCK-8 assay relative to control; type: toxicity, cell-based; details: at 8 µg/mL, read-out: Activity
Aspergillus flavus [19] = test: Antifungal activity against Aspergillus flavus ATCC 16870 assessed as inhibition of cell wall synthesis incubated for 24 hrs in absence of sorbitol; type: functional

Row | SMILES | MIC (Aspergillus fumigatus [1]) [µg/mL] | MIC (Candida albicans [2]) [µg/mL] | MIC (Aspergillus flavus [3]) [µg/mL] | IC50 [4] [µM] | inhibition (Candida tropicalis) [%] | MIC (Cryptococcus neoformans [5]) [µg/mL] | other results
1 | O=C(/C=C/C(=O)Nc1ccc2c(c1)C(=O)NC1(CCSC1)N2)Nc1cccc(Br)c1 (stereo unspecified) | 64 (≈ 131 µM) | 32 (≈ 65.7 µM) | 32 (≈ 65.7 µM) | 153 | 67.5 | 32 (≈ 65.7 µM) | –
2 | O=C(/C=C/C(=O)Nc1ccc2c(c1)C(=O)NC1(CCSC1)N2)Nc1ccccc1 (stereo unspecified) | 128 (≈ 313 µM) | 128 (≈ 313 µM) | 256 (≈ 627 µM) | 1870 | 44.2 | 128 (≈ 313 µM) | –
3 | O=C(/C=C/C(=O)Nc1ccccc1Cl)Nc1ccc2c(c1)C(=O)NC1(CCSC1)N2 (stereo unspecified) | 64 (≈ 144 µM) | 32 (≈ 72.2 µM) | 64 (≈ 144 µM) | 420 | 58.4 | 64 (≈ 144 µM) | –
4 | O=C(/C=C/C(=O)Nc1ccccc1Cl)Nc1ccc2c(c1)C(=O)NC1(CCOC1)N2 (stereo unspecified) | 64 (≈ 150 µM) | 128 (≈ 300 µM) | 128 (≈ 300 µM) | – | 53.7 | 128 (≈ 300 µM) | –
5 | O=C(/C=C/C(=O)Nc1ccc2c(c1)C(=O)NC1(CCSC1)N2)Nc1cccc(C(F)(F)F)c1 (stereo unspecified) | 64 (≈ 134 µM) | 128 (≈ 269 µM) | 64 (≈ 134 µM) | 353 | 58.1 | 64 (≈ 134 µM) | –
6 | CCCCCOc1ccc(-c2cc(-c3ccc(C(=O)N[C@H]4C[C@@H](O)[C@@H](O)NC(=O)[C@@H]5[C@@H](O)[C@@H](C)CN5C(=O)[C@H]([C@H](O)CC(N)=O)NC(=O)[C@H]([C@H](O)[C@@H](O)c5ccc(O)c(OS(=O)(=O)O)c5)NC(=O)[C@@H]5C[C@@H](O)CN5C(=O)[C@H]([C@@H](C)O)NC4=O)cc3)no2)cc1 [MICAFUNGIN] (X1-[Orn(4R-OH,5R-OH)]T[Hyp][hTyr(3S-OH,4S-OH,3'-OSO3H)][Gln(3R-OH)][Pro(3S-OH,4S-Me)]; lactam 1-C) | – | – | – | – | – | – | MIC (Candida albicans [6]): 256 µg/mL (≈ 202 µM)
7 | NC(=O)OC[C@H](O)[C@@H](O)[C@H](N)C(=O)N[C@H](C(=O)O)[C@H]1O[C@@H](n2cc(CO)c(=O)[nH]c2=O)[C@H](O)[C@@H]1O [POLYOXIN B] | 16 (≈ 31.5 µM) | 8 (≈ 15.8 µM) | 16 (≈ 31.5 µM) | 93.5 | 84.7 | 16 (≈ 31.5 µM) | MIC (Candida albicans [7]): 128 µg/mL; MIC (Aspergillus fumigatus [8]): 128 µg/mL; viability (A549): 84.3%; MIC (Aspergillus flavus [9]): 128 µg/mL; MIC (Aspergillus fumigatus [10]): 16 µg/mL (≈ 31.5 µM); viability at 24 h, 64 ug/ml [11]: 91.2%; viability at 24 h, 4 ug/ml [12]: 99.3%; viability at 24 h, 16 ug/ml [13]: 97.9%; MIC (Cryptococcus neoformans [14]): 64 µg/mL; MIC (Candida albicans [15]): 8 µg/mL (≈ 15.8 µM); viability at 24 h, 32 ug/ml [16]: 92.7%; MIC (Cryptococcus neoformans [17]): 16 µg/mL (≈ 31.5 µM); viability at 24 h, 8 ug/ml [18]: 98.7%; MIC (Aspergillus flavus [19]): 16 µg/mL (≈ 31.5 µM)

More lines, main results first:

Row | MIC (Aspergillus fumigatus [1]) [µg/mL] | MIC (Candida albicans [2]) [µg/mL] | MIC (Aspergillus flavus [3]) [µg/mL] | IC50 [4] [µM] | inhibition (Candida tropicalis) [%] | MIC (Cryptococcus neoformans [5]) [µg/mL] | SMILES | other results
8 | 64 (≈ 144 µM) | 64 (≈ 144 µM) | 128 (≈ 289 µM) | 433 | 58 | 64 (≈ 144 µM) | O=C(/C=C/C(=O)Nc1ccc2c(c1)C(=O)NC1(CCSC1)N2)Nc1ccc(Cl)cc1 (stereo unspecified) | –
9 | 128 (≈ 289 µM) | 128 (≈ 289 µM) | 128 (≈ 289 µM) | – | 48.2 | 128 (≈ 289 µM) | O=C(/C=C/C(=O)Nc1ccc2c(c1)C(=O)NC1(CCCC1)N2)Nc1ccc(F)c(Cl)c1 | –
10 | 256 (≈ 603 µM) | 128 (≈ 301 µM) | 256 (≈ 603 µM) | – | 38.7 | 128 (≈ 301 µM) | O=C(/C=C/C(=O)Nc1ccccc1Cl)Nc1ccc2c(c1)C(=O)NC1(CCCC1)N2 | –
11 | 128 (≈ 300 µM) | 128 (≈ 300 µM) | 128 (≈ 300 µM) | – | 49.2 | 128 (≈ 300 µM) | O=C(/C=C/C(=O)Nc1ccc2c(c1)C(=O)NC1(CCOC1)N2)Nc1ccc(Cl)cc1 (stereo unspecified) | –

Reference: ChEMBL document CHEMBL5365394, “Design, synthesis and biological evaluation of novel spiro-quinazolinone derivatives as chitin synthase inhibitors and antifungal agents” (Eur J Med Chem, 2023)
